Experimental data reported in patent US4348264A, “Photocatalyzed process for producing carbapenams and carbapen-2-ems” (Pfizer Inc., priority 1981, dated 1982).
Converted amounts (≈) assume the structure as drawn. Like-named read-outs stand apart in the source and are kept apart here.

Key:
Format in all cases: cell-based
Proteus morgani = experiment: Serial dilution-tube method, MIC; conditions: brain heart infusion broth; for MIC: read-out: Minimum Inhibitory Concentration
Enterobacter cloacae = experiment: Serial dilution-tube method, MIC; conditions: brain heart infusion broth; for MIC: Enterobacter cloacae, read-out: Minimum Inhibitory Concentration
Serratia marcescens = experiment: Serial dilution-tube method, MIC; conditions: brain heart infusion broth; for MIC: Serratia marcescens, read-out: Minimum Inhibitory Concentration
Klebsiella pneumoniae = experiment: Serial dilution-tube method, MIC; conditions: brain heart infusion broth; for MIC: Klebsiella pneumoniae, read-out: Minimum Inhibitory Concentration
Staphylococcus aureus [1] = experiment: Standard disc-plate method, zone of inhibition
Source text: (§1) The utility of the various compounds as intermediates to other compounds of the present invention will be evident from the preceding discussion. The antibacterial activity of these compounds, reflecting their utility in the control of susceptible bacterial infections in man and animals, as animal feed additives for promotion of growth, or as preservatives of materials biodegraded by susceptible microorganisms, is best measured by the standard disc-plate method routinely employed in clinical laboratories for determining the sensitivity of microorganisms to antimicrobial substances. Sensitivity discs are prepared by dipping a standard 6.25 mm. paper disc into a solution of the compound to be tested (conc. 1 mg./ml.) in a volatile solvent (e.g. methylene chloride) and the disc dried, producing discs containing approximately 25 microg. of the compound. The discs are placed on the surface of agar growth media seeded with the test microorganism, previously plated into Petri dishes. The plates are incubated overnight at 35°-37° C. Activity of the test compound is reflected by a zone of inhibition of bacterial growth around the test disc. The diameter of this zone provides a quantitative measure of the activity of the antibacterial substance. The activity of various compounds of the present invention is summarized in Table I. For comparison, results obtained with 10 microg. discs of ampicillin and penicillin G are included as positive controls.

Bacillus subtilis = experiment: Standard disc-plate method, zone of inhibition
Source text: as §1

Vibrio percolans = experiment: Standard disc-plate method, zone of inhibition; conditions: for zone of inhibition at 25 µg/disc: 25 microgram discs
Source text: as §1

[2] = test system: Staphylococcus aureus (Antibiotic Resistant); experiment: Standard disc-plate method, zone of inhibition; conditions: for zone of inhibition at 25 µg/disc: 25 microgram discs
Source text: as §1

Escherichia coli [3] = experiment: Standard disc-plate method, zone of inhibition; conditions: for zone of inhibition at 25 µg/disc: Escherichia coli
Source text: as §1

[4] = test system: Escherichia coli (Antibiotic Resistant); experiment: Serial dilution-tube method, MIC; parameters: key to synergistic effect with cefazolin: b: Shows a synergistic effect when tested 1:1 with cefazolin; conditions: for MIC: Escherichia coli, read-out: Minimum Inhibitory Concentration; for MIC / Minimum Inhibitory Concentration: brain heart infusion broth
Staphylococcus aureus [5] = experiment: Serial dilution-tube method, MIC; conditions: for MIC: Staphylococcus aureus
Escherichia coli [6] = experiment: Serial dilution-tube method, MIC; parameters: key to synergistic effect with ampicillin: Shows a synergistic effect when tested 1:1 with ampicillin; conditions: for MIC: Escherichia coli, read-out: Minimum Inhibitory Concentration; for MIC / Minimum Inhibitory Concentration: brain heart infusion broth
Pseudomonas aeruginosa = experiment: Serial dilution-tube method, MIC; conditions: brain heart infusion broth; for MIC: Pseudomonas aeruginosa, read-out: Minimum Inhibitory Concentration
[7] = test system: Staphylococcus aureus (Antibiotic Resistant); experiment: Serial dilution-tube method, MIC; parameters: key to synergistic effect with ampicillin: Shows a synergistic effect when tested 1:1 with ampicillin; conditions: for MIC: Staphylococcus aureus, read-out: Minimum Inhibitory Concentration; for MIC / Minimum Inhibitory Concentration: brain heart infusion broth
Citrobacter diversus = experiment: Serial dilution-tube method, MIC; conditions: Citrobacter koseri; brain heart infusion broth; read-out: Minimum Inhibitory Concentration
Micrococcus luteus = experiment: Standard disc-plate method, zone of inhibition
Source text: as §1

[8] = Staphylococcus aureus, 25 microgram discs
[9] = Bacillus subtilis, 25 microgram discs
[10] = Staphylococcus aureus, antibiotic resistant
[11] = brain heart infusion broth, read-out: Minimum Inhibitory Concentration
[12] = Micrococcus luteus, 25 microgram discs
[13] = positive control, 10 microgram discs

Structure (SMILES)	MIC (Proteus morgani) [µg/mL]	MIC (Enterobacter cloacae) [µg/mL]	MIC (Serratia marcescens) [µg/mL]	MIC (Klebsiella pneumoniae) [µg/mL]	zone of inhibition at 25 µg/disc (Staphylococcus aureus [1]; [8]) [mm]	zone of inhibition at 25 µg/disc (Bacillus subtilis; [9]) [mm]	zone of inhibition at 25 µg/disc (Vibrio percolans; Comamonas terrigena) [mm]	zone of inhibition at 25 µg/disc [2, 10] [mm]	zone of inhibition at 25 µg/disc (Escherichia coli [3]; 25 microgram discs) [mm]	MIC [4] [µg/mL]	MIC (Staphylococcus aureus [5]; [11]) [µg/mL]	MIC (Escherichia coli [6]) [µg/mL]	MIC (Pseudomonas aeruginosa) [µg/mL]	MIC [7] [µg/mL]	MIC (Citrobacter diversus) [µg/mL]	zone of inhibition at 25 µg/disc (Micrococcus luteus; [12]) [mm]	further results
CCN1CCN(C(=O)N[C@@H](C(=O)NC2C(=O)N3C(C(=O)OCOC(=O)C(C)(C)C)C(C)C(O)C23)c2ccccc2)C(=O)C1=O (stereo partly shown) [EPA H POM CH3 H OH I, Pivaloyloxymethyl 1-Hydroxy-2-methyl-6-[2-phenyl-2-(4-ethyl-2,3-dioxopiperazine-1-carboxamido)acetamido]carbapenam-3-carboxylate]	≤ 0.39	12.5 (≈ 20.3 µM)	25 (≈ 40.6 µM)	12.5 (≈ 20.3 µM)	18	17	24	10	20	> 200	25 (≈ 40.6 µM)	6.25	200 (≈ 325 µM)	> 200	12.5 (≈ 20.3 µM)	–	–
CC(=O)OC1C(C)=C(C(=O)[O-])N2C(=O)C(C(C)O)C12.[Na+] (stereo not drawn) [HET H H CH3 H OAc I, Sodium 6-alpha-(1-Hydroxyethyl)-1-acetoxy-2-methylcarbapen-2-em-3-carboxylate]	–	–	–	–	–	–	–	–	–	–	–	–	–	–	–	–	Minimum Inhibitory Concentration (Proteus morgani): > 200 µg/mL; Minimum Inhibitory Concentration (Enterobacter cloacae): > 200 µg/mL; Minimum Inhibitory Concentration (Serratia marcescens): > 200 µg/mL; Minimum Inhibitory Concentration (Klebsiella pneumoniae): > 200 µg/mL; Zone of Inhibition (Staphylococcus aureus [1]; 25 microgram discs): 0 mm; Zone of Inhibition (Bacillus subtilis; 25 microgram discs): 16 mm; Zone of Inhibition (Escherichia coli [3]; 25 microgram discs): 0 mm; Zone of Inhibition (Micrococcus luteus; 25 microgram discs): 13 mm; Minimum Inhibitory Concentration [4]: > 200 µg/mL; Minimum Inhibitory Concentration (Escherichia coli [6]): > 200 µg/mL; Minimum Inhibitory Concentration (Pseudomonas aeruginosa): > 200 µg/mL; Minimum Inhibitory Concentration [7]: 100 µg/mL
CC1C(=O)C2C(NC(=O)COc3ccccc3)C(=O)N2C1C(=O)OCOC(=O)C(C)(C)C (stereo not shown) [PMA H POM CH3 O I, Pivaloyloxymethyl 2-Methyl-1-oxo-6-(2-phenoxyacetamido)carbapenam-3-carboxylate]	> 200	> 200	> 200	> 200	–	21	–	12	0	> 200	–	> 200	> 200	> 200	> 200	15	–
CCN1CCN(C(=O)N[C@@H](C(=O)NC2C(=O)N3C(C(=O)OCOC(=O)C(C)(C)C)=C(C)C(=O)C23)c2ccccc2)C(=O)C1=O (stereo partly shown) [EPA H POM CH3 O II, Pivaloyloxymethyl 2-Methyl-1-oxo-6-[2-phenyl-2-(4-ethyl-2,3-dioxopiperazine-1-carboxamido)acetamido]carbapen-2-em-3-carboxylate]	–	–	–	–	0	0	20	0	0	–	–	–	–	–	–	0	–
CC1C(O)C2CC(=O)N2C1C(=O)OCOC(=O)C(C)(C)C (stereo not shown) [H H POM CH3 H OH I, Pivaloyloxymethyl 1-Hydroxy-2-methylcarbapenam-3-carboxylate]	> 200	> 200	> 200	> 200	0	0	–	0	–	> 200	> 200	> 200	> 200	> 200	> 200	–	–
CCN1CCN(C(=O)N[C@@H](C(=O)NC2C(=O)N3C(C(=O)OCOC(=O)C(C)(C)C)C(C)C(=O)C23)c2ccccc2)C(=O)C1=O (stereo partly shown) [EPA H POM CH3 O I, Pivaloyloxymethyl 2-Methyl-1-oxo-6-[2-phenyl-2-(4-ethyl-2,3-dioxopiperazine-1-carboxamido)acetamido]carbapenam-3-carboxylate]	25 (≈ 40.7 µM)	200 (≈ 326 µM)	100 (≈ 163 µM)	100 (≈ 163 µM)	12	21	21	12	12	> 200	100 (≈ 163 µM)	100	> 200	> 200	100 (≈ 163 µM)	–	synergistic effect with ampicillin (Escherichia coli [6]; tested 1:1 with ampicillin): a
CC(=O)OC(C)C1C(=O)N2C(C(=O)O)=C(C)C(OC(C)=O)C12 (stereo not drawn) [AET H H CH3 H OAc I, Sodium 6-alpha-(1-Acetoxyethyl)-1-acetoxy-2-methylcarbapen-2-em-3-carboxylate]	–	–	–	–	21	25	10	–	0	–	–	–	–	–	–	26	–
CC1C(=O)C2CC(=O)N2C1C(=O)OCOC(=O)C(C)(C)C (stereo not shown) [H H POM CH3 O I, Pivaloyloxymethyl 2-Methyl-1-oxocarbapenam-3-carboxylate]	> 200	> 200	> 200	> 200	18	18	–	0	–	> 200	> 200	> 200	> 200	> 200	> 200	–	synergistic effect with cefazolin ([4]; tested 1:1 with cefazolin): b; MIC (Staphylococcus aureus [5]; serial dilution tube test, read-out: minimum inhibitory concentration): > 200 µg/mL; synergistic effect with ampicillin ([7]; tested 1:1 with ampicillin): a
CC(=O)OC(C)C1C(=O)N2C(C(=O)O)=C(C)C(O)C12 (stereo not drawn) [AET H H CH3 H OH I, Sodium 6-alpha-(1-Acetoxyethyl)-1-hydroxy-2-methylcarbapen-2-em-3-carboxylate]	–	–	–	–	20	15	16	–	0	–	–	–	–	–	–	20	–
CC1(C)S[C@@H]2[C@H](NC(=O)Cc3ccccc3)C(=O)N2[C@H]1C(=O)O [Penicillin, reference compound]	–	–	–	–	–	–	–	–	–	–	–	–	–	–	–	–	zone of inhibition at 10 µg/disc (Staphylococcus aureus [1]; Staphylococcus aureus, positive control, 10 microgram discs): 31 mm; zone of inhibition at 10 µg/disc (Bacillus subtilis; Bacillus subtilis, positive control, 10 microgram discs): 32 mm; zone of inhibition at 10 µg/disc (Vibrio percolans; Comamonas terrigena, positive control, 10 microgram discs): 33 mm; zone of inhibition at 10 µg/disc ([2]; Staphylococcus aureus): 0 mm; Zone of Inhibition (Escherichia coli [3]; [13]): 16 mm; zone of inhibition at 10 µg/disc (Micrococcus luteus; Micrococcus luteus): 45 mm
CC1(C)S[C@@H]2[C@H](NC(=O)Cc3ccccc3)C(=O)N2[C@H]1C(=O)O [Penicillin G, reference compound]	–	–	–	–	–	–	–	–	–	–	–	–	–	–	–	–	Zone of Inhibition (Staphylococcus aureus [1]; [13]): 32 mm; Zone of Inhibition (Bacillus subtilis; [13]): 33 mm; Zone of Inhibition (Vibrio percolans; [13]): 32 mm; Zone of Inhibition ([2]; positive control, 10 microgram discs, antibiotic resistant): 0 mm; Zone of Inhibition (Escherichia coli [3]; [13]): 0 mm; Zone of Inhibition (Micrococcus luteus; [13]): 45 mm
CC(=O)OC1C(C)C(C(=O)O)N2C(=O)CC12 (stereo not shown) [H H H CH3 H OAc I, 1-Acetoxy-2-methylcarbapenam-3-carboxylic Acid]	> 200	> 200	> 200	> 200	0	12	–	0	–	> 200	> 200	> 200	> 200	> 2000	> 200	–	–
CC1=C(C(=O)[O-])N2C(=O)C(C(C)O)C2C1O.[Na+] (stereo not shown) [HET H H CH3 H OH I]	–	–	–	–	–	–	–	–	–	–	–	–	–	–	–	–	Minimum Inhibitory Concentration (Proteus morgani): 25 µg/mL; Minimum Inhibitory Concentration (Enterobacter cloacae): 25 µg/mL; Minimum Inhibitory Concentration (Serratia marcescens): 50 µg/mL; Minimum Inhibitory Concentration (Klebsiella pneumoniae): 50 µg/mL; Zone of Inhibition (Staphylococcus aureus [1]; 25 microgram discs): 29 mm; Zone of Inhibition (Bacillus subtilis; 25 microgram discs): 29 mm; Zone of Inhibition (Escherichia coli [3]; 25 microgram discs): 23 mm; Zone of Inhibition (Micrococcus luteus; 25 microgram discs): 39 mm; Minimum Inhibitory Concentration [4]: 12.5 µg/mL; Minimum Inhibitory Concentration (Staphylococcus aureus [5]; brain heart infusion broth): 1.56 µg/mL; Minimum Inhibitory Concentration (Escherichia coli [6]): 6.25 µg/mL; Minimum Inhibitory Concentration (Pseudomonas aeruginosa): 200 µg/mL; Minimum Inhibitory Concentration [7]: 3.12 µg/mL
